# Experimental data published in patent US9993518B2, “Association of a tetrapeptide and a glyceryl ester for treating androgenic alopecia” (PIERRE FABRE DERMO-COSMETIQUE, priority 2014, dated 2018).
# Experiments:
# Format in all cases: cell-based
# Conditions in all cases: human hair follicles, 6 h, Control RQ = 1, average of two donors
# KRT81 gene = KRT81 gene expression in cultured human hair follicle bulbs, quantitative real-time PCR
# Experimental: (§1) Hair follicle bulbs derived from plastic surgery waste (face lifts) from two donors were isolated by microdissection, cultured and treated for 6 hours with the active agents (acetyl tetrapeptide-3, glyceryl laurate, and the association thereof). RNA was extracted, assayed, reverse-transcribed and the expression of a panel of genes expressed in the pilosebaceous follicle was analyzed by quantitative real-time PCR.
# (§2) The analysis of the results generated in this study led, for each condition applied and each gene of interest studied, to the calculation of a relative quantity (RQ). RQ corresponds to the expression level of a gene relative to its basal expression level (expression level obtained for the Control condition, the RQ of which is set to 1). Thus, the modulation of a gene's expression level is considered significant when: • the RQ is greater than or equal to 2: the gene is expressed two times more than in the Control condition • the RQ is less than or equal to 0.5: the gene is expressed two times less than in the Control condition.
# (§3) The set of results presented below corresponds to the average results obtained for the two donors of the study.
# KRT17 gene = KRT17 gene expression in cultured human hair follicle bulbs, quantitative real-time PCR
# Experimental: as §1, §2, §3
# SFRP1 gene = SFRP1 gene expression in cultured human hair follicle bulbs, quantitative real-time PCR
# Experimental: as §1, §2, §3
# KRT25 gene = KRT25 gene expression in cultured human hair follicle bulbs, quantitative real-time PCR
# Experimental: as §1, §2, §3
# KRT27 gene = KRT27 gene expression in cultured human hair follicle bulbs, quantitative real-time PCR
# Experimental: as §1, §2, §3
# FZD1 gene = FZD1 gene expression in cultured human hair follicle bulbs, quantitative real-time PCR
# Experimental: as §1, §2, §3
Compound,"RQ (relative quantity), expression level of the KRT81 gene (KRT81 gene; 10 μM)","RQ (relative quantity), expression level of the KRT17 gene (KRT17 gene; 10 μM)","RQ (relative quantity), expression level of the SFRP1 gene (SFRP1 gene; 10 μM)","RQ (relative quantity), expression level of the KRT25 gene (KRT25 gene; 10 μM)","RQ (relative quantity), expression level of the KRT27 gene (KRT27 gene; 10 μM)","RQ (relative quantity), expression level of the FZD1 gene (FZD1 gene; 10 μM)","RQ (relative quantity), expression level of the KRT81 gene (KRT81 gene; 20 μM)","RQ (relative quantity), expression level of the KRT17 gene (KRT17 gene; 20 μM)","RQ (relative quantity), expression level of the SFRP1 gene (SFRP1 gene; 20 μM)","RQ (relative quantity), expression level of the KRT25 gene (KRT25 gene; 20 μM)","RQ (relative quantity), expression level of the KRT27 gene (KRT27 gene; 20 μM)","RQ (relative quantity), expression level of the FZD1 gene (FZD1 gene; 20 μM)"
"CCCCCCCCCCCC(=O)OCC(O)CO (stereo not drawn) [GL, glyceryl laurate]",1.8,1.1,0.9,1.3,1.3,1.3,,,,,,
"acetyl tetrapeptide-3 (Ac-KGHK-NH2) [ATP-3, CAS number 827306-88-7]",,,,,,,1.5,0.8,1.3,1.7,1.4,1.2
